Consider 32 compounds from US20230339886A1 (University of Florida Research Foundation, Incorporated, priority 2020, published 2023).

pEC50: −log10 of the molar value. Like-named read-outs stand apart in the source and are kept apart here. Some results are limits rather than exact numbers.

Test [1] concerns the target T1, REV-ERBα LBD (human; residues 281-614 Δ324-422) (Homo sapiens, UniProt P20393, DEL324-422).
T1 construct: 6×Histag-REV-ERBα LBD (human; residues 281-614 Δ324-422); made in house; host or cells: Escherichia coli
The test is described as follows: TR-FRET corepressor interaction assay (REV-ERBα LBD, FITC-SMRT peptide). The test is classed as biochemical. The method, boiled down:
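Compound serial dilutions (in DMSO, triplicate) incubated 2 h at 4 °C; Tb donor excited at 340 nm, emission read at 495 nm and FITC acceptor at 520 nm. TR-FRET ratio (520/495 nm) plotted against ligand concentration and fitted to a sigmoidal dose-response curve.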

A further test concerns the target T2, REV-ERBβ (Homo sapiens, UniProt Q14995).
T2 construct: 6×Histag-REV-ERBα LBD (human; residues 381-579); made in house; host or cells: Escherichia coli
T2 sequence (Q14995 381-579): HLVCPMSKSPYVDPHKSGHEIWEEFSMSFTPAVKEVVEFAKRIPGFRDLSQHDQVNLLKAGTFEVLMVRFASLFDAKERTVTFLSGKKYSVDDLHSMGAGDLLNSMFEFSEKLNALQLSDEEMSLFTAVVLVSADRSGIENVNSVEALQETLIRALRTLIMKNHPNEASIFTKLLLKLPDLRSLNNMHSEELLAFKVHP
The test is described as follows: TR-FRET corepressor interaction assay (REV-ERBβ, FITC-SMRT peptide). Conditions: Table 2, read-out: REVERBβ agonism (EC50 class, FRET assay). The test is classed as biochemical. On the procedure:
TR-FRET corepressor interaction assay. The time-resolved fluorescence resonance energy transfer (TR-FRET) assay was performed in black low-volume 384-well plates (Greiner). […] Ligand stocks were prepared via serial dilution in DMSO, added to wells in triplicate, and plates were incubated at 4° C. for 2 h and read using a BioTek Synergy Neo multimode plate reader. The Tb donor was excited at 340 nm; its fluorescence emission was monitored at 495 nm, and the acceptor FITC emission was measured at 520 nm; and the TR-FRET ratio was calculated as the signal at 520 nm divided by the signal at 495 nm. Data were plotted using GraphPad Prism as TR-FRET ratio vs. ligand concentration and fit to sigmoidal dose response curve equation.
Exemplary compounds of the present disclosure were assayed as described above to assess agonism of REV-ERBα and REV-ERBβ.

Setting [2] is: Table 2, read-out: REVERBα agonism (EC50 class, FRET assay).
Where [3] appears, read: FITC-SMRT peptide, read-out: REVERBα agonism (EC50 class, FRET assay).

T1 sequence (P20393 with tags, fused parts or gaps DEL324-422): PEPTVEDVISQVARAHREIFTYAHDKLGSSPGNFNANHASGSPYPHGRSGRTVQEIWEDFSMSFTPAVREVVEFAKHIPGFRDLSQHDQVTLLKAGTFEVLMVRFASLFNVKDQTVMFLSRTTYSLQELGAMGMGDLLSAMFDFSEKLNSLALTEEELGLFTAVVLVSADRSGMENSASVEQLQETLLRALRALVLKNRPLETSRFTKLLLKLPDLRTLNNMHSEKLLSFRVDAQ
T1 sequence (Q9Y618 2335-2356 partner limits assumed): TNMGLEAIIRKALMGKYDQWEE

For orientation: pEC50 means −log10 of the EC50, conventionally taken in molar units. For `CCc1ccc2c(CCNS(=O)(=O)N(C)C)cn(CC(C)C)c2c1` [Compound 100, ({2-[6-ethyl-1-(2-methylpropyl)-1H-indol-3-yl]ethyl}sulfamoyl)dimethylamine], the results for the pEC50 (in test [1] (setting [2]); on REV-ERBβ) were > 6.30 and < 5.52, respectively.
Regarding `Cc1cc2c(CCNS(=O)(=O)N(C)C)cn(CC(C)C)c2cc1C` [Example 120, ({2-[5,6-dimethyl-1-(2-methylpropyl)-1H-indol-3-yl]ethyl}sulfamoyl)dimethylamine], the pEC50 is > 6.30 in test [1] (setting [2]) and < 5.52 at REV-ERBβ.
`Cc1c(-c2ccncc2)ccc2c(CCNS(=O)(=O)N(C)C)cn(C(=O)C(C)C)c12` [Example 199, 1-(3-{2-[(dimethylsulfamoyl)amino]ethyl}-7-methyl-6-(pyridin-4-yl)-1H-indol-1-yl)-2-methylpropan-1-one]: the values for the pEC50 (in test [1] (setting [2]); on REV-ERBβ) were > 6.30 and 5.52 to 6.30, respectively.
Turning to `CC(C)Cn1cc(CCNS(=O)(=O)C(C)C)c2cc(F)c(-c3ccncc3Cl)cc21` [Compound 263], the figures for the pEC50 (in test [1] (setting [2]); at REV-ERBβ) were > 6.30 and < 5.52, respectively.
Taken in the same sequence, the figures for `CC(C)Cn1cc(CCNS(=O)(=O)N(C)C)c2ccc(-c3ccnc(N)c3)cc21` [Compound 21] were 5.52 to 6.30 and < 5.52.
Turning to `CC(C)(C)Cc1cn(CCNS(=O)(=O)C2CC2)c2ccc(-c3ccccc3C(F)(F)F)cc12` [Example 212, N-(2-(3-neopentyl-5-(2-(trifluoromethyl)phenyl)-1H-indol-1-yl)ethyl)cyclopropane sulfonamide], the figures for the pEC50 (in test [1] (setting [2]); at REV-ERBβ) were > 6.30 and 5.52 to 6.30, respectively.
The corresponding values for `Cc1ccc2c(c1)c(CC(C)(C)C)cn2CCNS(=O)(=O)C1CC1` [Example 296, N-(2-(5-methyl-3-neopentyl-1H-indol-1-yl)ethyl)cyclopropanesulfonamide] are 5.52 to 6.30 and < 5.52.
In the case of `CC(C)Cn1cc([C@H](NS(=O)(=O)C2CC2)C(F)(F)F)c2ccc(C3CC3)cc21` [Example 310, (S)—N-(1-(6-cyclopropyl-1-isobutyl-1H-indol-3-yl)-2,2,2-trifluoroethyl)cyclopropanesulfonamide], the pEC50 in test [1] (setting [2]) was > 6.30; at REV-ERBβ, 5.52 to 6.30.
Turning to `CC(C)Cn1cc(CCNS(=O)(=O)N(C)C)c2ccc(-c3ccnc(C(F)(F)F)c3)cc21` [Compound 17], the pEC50 in test [1] (setting [2]) is 5.52 to 6.30; on REV-ERBβ, < 5.52.
In the case of `CC(C)Cn1cc(CCNS(=O)(=O)N(C)C)c2ccc(-c3ccccc3)cc21` [Compound 30, dimethyl({2-[1-(2-methylpropyl)-6-phenyl-1H-indol-3-yl]ethyl}sulfamoyl)amine], the negative logarithm of the EC50 (pEC50) on REV-ERBβ is 5.52 to 6.30.
Same read-out and setting: to `COc1ccccc1-c1ccc2c(CCNS(=O)(=O)N(C)C)cn(CC(C)C)c2c1` [Example 58, N-{2-[6-(2-methoxylphenyl)-1-(2-methylpropyl)-1H-indol-3-yl]ethyl}-N,N-dimethylsulfuric diamide] belongs < 5.52; to `CC(C)Cn1cc(CCNS(=O)(=O)N(C)C)c2ccc(-c3ccncc3)cc21` [Compound 27, dimethyl({2-[1-(2-methylpropyl)-6-(pyridin-4-yl)-1H-indol-3-yl]ethyl}sulfamoyl)amine], 5.52 to 6.30; to `CC(C)Cn1cc(CCNS(=O)(=O)N(C)C)c2ccc(-c3ccccc3Cl)cc21` [Example 78, N-{2-[6-(2-chlorophenyl)-1-(2-methylpropyl)-1H-indol-3-yl]ethyl}-N,N-dimethylsulfuric diamide], < 5.52.
Take `CC(C)Cc1cn(CCNS(=O)(=O)N(C)C)c2ccc(-c3ccncc3)cc12` [Example 23, dimethyl({2-[3-(2-methylpropyl)-5-(pyridin-4-yl)-1H-indol-1-yl]ethyl}sulfamoyl)amine]: the pEC50 on REV-ERBβ is 5.52 to 6.30.
The same measure, in the same setting: then `CC(C)Cn1cc(CCNS(=O)(=O)N(C)C)c2ccc(C3CC3)cc21` [Example 82, N-{2-[6-cyclopropyl-1-(2-methylpropyl)-1H-indol-3-yl]ethyl}-N,N-dimethylsulfuric diamide], with < 5.52.
For the compound `CC(C)(C)Cn1cc([C@H](NS(=O)(=O)C2CCC2)C(F)(F)F)c2cc(F)c(-c3ccccc3C(F)(F)F)nc21` [Example 525, (S)—N-(2,2,2-trifluoro-1-(5-fluoro-1-neopentyl-6-(2-(trifluoromethyl)phenyl)-1H-pyrrolo[2,3-b]pyridin-3-yl)ethyl)cyclobutanesulfonamide], the pEC50 in test [1] (setting [3]) is > 6.30.
The same measure, in the same setting: then `CC(C)(C)Cc1cn(CCNS(=O)(=O)C2CCCC2)c2ccc(-c3ccc(C(F)(F)F)cc3C(F)(F)F)cc12` [Example 503, N-(2-(5-(2,4-bis(trifluoromethyl)phenyl)-3-neopentyl-1H-indol-1-yl)ethyl)cyclopentanesulfonamide], with > 6.30; and `CC(C)(C)Cn1cc([C@H](NS(=O)(=O)C2CC2)C(F)F)c2ccc(-c3c(C#N)cccc3C(F)(F)F)cc21` [Example 545, (S)—N-(1-(6-(2-cyano-6-(trifluoromethyl)phenyl)-1-neopentyl-1H-indol-3-yl)-2,2-difluoroethyl)cyclopropanesulfonamide], with > 6.30.
With `CN(C)S(=O)(=O)NCCc1cn(C(=O)c2cc(Cl)cc(Cl)c2)c2cc(-c3ccncc3)ccc12` [Example 151, N′-{2-[6-(pyridin-4-yl)-1-(3,5-dichlorobenzoyl)-1H-indol-3-yl]ethyl}-N,N-dimethylsulfuric diamide], the pEC50 in test [1] (setting [2]) was < 5.52.
In the case of `CC(C)c1cc2c(cc1F)c([C@H](NS(=O)(=O)N(C)C)C(F)(F)F)cn2CC(C)(C)C` [Example 337, {[(1S)-1-[1-(2,2-dimethylpropyl)-5-fluoro-6-(propan-2-yl)-1H-indol-3-yl]-2,2,2-trifluoroethyl]sulfamoyl}dimethylamine], the pEC50 in test [1] (setting [2]) is 5.52 to 6.30.
Still for that read-out and setting: to `Cc1c(-c2ccccc2C(F)(F)F)ccc2c([C@H](NS(=O)(=O)C3CC3)C(F)(F)F)cn(CC(C)(C)C)c12` [Example 353, (S)—N-(2,2,2-trifluoro-1-(7-methyl-1-neopentyl-6-(2-(trifluoromethyl)phenyl)-1H-indol-3-yl)ethyl)cyclopropanesulfonamide] belongs > 6.30; to `CC(C)S(=O)(=O)NCCc1cn(CC(C)(C)C)c2cc(-c3ccncc3Cl)c(F)cc12` [Compound 290], > 6.30.
`CC(C)(O)Cn1cc([C@H](NS(=O)(=O)C2CC2)C(F)(F)F)c2cc(F)c(-c3ccccc3C(F)(F)F)cc21` [Example 474, N-[(1S)-2,2,2-trifluoro-1-[5-fluoro-1-(2-hydroxy-2-methyl-propyl)-6-[2-(trifluoromethyl)phenyl]indol-3-yl]ethyl]cyclopropanesulfonamide]: the pEC50 in test [1] (setting [3]) is 5.52 to 6.30.
As for `CC(C)C(=O)n1cc(CNS(=O)(=O)N(C)C)c2ccc(-c3ccncc3)cc21` [Example 182, 1-(3-{[(dimethylsulfamoyl)amino]methyl}-6-(pyridin-4-yl)-1H-indol-1-yl)-2-methylpropan-1-one], the pEC50 in test [1] (setting [2]) is 5.52 to 6.30.
Turning to `CC(C)(C)Cn1cc([C@H](NS(=O)(=O)C2CCC2)C(F)(F)F)c2cc(F)c(C3CCCC3)cc21` [Example 428, (S)—N-(1-(6-cyclopentyl-5-fluoro-1-neopentyl-1H-indol-3-yl)-2,2,2-trifluoroethyl)cyclobutanesulfonamide], the pEC50 in test [1] (setting [3]) is > 6.30.
As to `CC(C)Cn1cc(C(C)NS(=O)(=O)C2CC2)c2ccc(-c3ccccc3C(F)(F)F)cc21` (centres unmarked) [Example 204, N-(1-(1-isobutyl-6-(2-(trifluoromethyl)phenyl)-1H-indol-3-yl)ethyl)cyclopropanesulfonamide], the pEC50 in test [1] (setting [2]) was > 6.30.
On to `CC(C)(C)Cc1cn(CCNS(=O)(=O)C2CC2)c2ccc(-c3cccc4ccncc34)cc12` [Example 217, N-(2-(5-(isoquinolin-8-yl)-3-neopentyl-1H-indol-1-yl)ethyl)cyclopropane-sulfonamide], for which, in test [1] (setting [2]), the pEC50 is 5.52 to 6.30.
In the case of `CN(C)S(=O)(=O)NCCc1cn(Cc2ccncc2)c2cc(Br)ccc12` [Example 162, [(2-{6-bromo-1-[(pyridin-4-yl)methyl]-1H-indol-3-yl}ethyl)sulfamoyl]dimethylamine], the pEC50 in test [1] (setting [2]) is 5.52 to 6.30.
Consider `CC(C)Cn1cc(CCS(=O)(=O)C(C)C)c2ccc(-c3ccncc3)cc21` [Compound 248], for which the pEC50 in test [1] (setting [2]) is > 6.30.
On to `CN(C)S(=O)(=O)NCCc1cn(Cc2ccccc2Br)c2cc(-c3ccncc3)ccc12` [Example 140, N′-{2-[6-(pyridin-4-yl)-1-(2-bromobenzyl)-1H-indol-3-yl]ethyl}-N,N-dimethylsulfuric diamide], for which the negative-log EC50 (pEC50) in test [1] (setting [2]) was < 5.52.
On the same count and under the same terms, then `COC(=O)Cn1cc(CCNS(=O)(=O)N(C)C)c2ccc(Br)cc21` [Example 164, methyl 2-(6-bromo-3-(2-((N,N-dimethylsulfamoyl)amino)ethyl)-1H-indol-1-yl)acetate], with < 5.52; and `CC(C)Cn1cc(CC(C)NS(=O)(=O)C(C)C)c2ccc(-c3ccncc3)cc21` (centres unmarked) [Compound 275], with 5.52 to 6.30.
